As usually defined, the Ki is the equilibrium dissociation constant of an inhibitor or competing ligand from its target. The EC50 is the concentration giving half of the maximal effect.

In assay [1] the target is T1, Gce (germ cell-expressed), Myc-tagged, in vitro translated (Drosophila melanogaster, UniProt Q9VXW7).
T1 sequence (Q9VXW7 271-959): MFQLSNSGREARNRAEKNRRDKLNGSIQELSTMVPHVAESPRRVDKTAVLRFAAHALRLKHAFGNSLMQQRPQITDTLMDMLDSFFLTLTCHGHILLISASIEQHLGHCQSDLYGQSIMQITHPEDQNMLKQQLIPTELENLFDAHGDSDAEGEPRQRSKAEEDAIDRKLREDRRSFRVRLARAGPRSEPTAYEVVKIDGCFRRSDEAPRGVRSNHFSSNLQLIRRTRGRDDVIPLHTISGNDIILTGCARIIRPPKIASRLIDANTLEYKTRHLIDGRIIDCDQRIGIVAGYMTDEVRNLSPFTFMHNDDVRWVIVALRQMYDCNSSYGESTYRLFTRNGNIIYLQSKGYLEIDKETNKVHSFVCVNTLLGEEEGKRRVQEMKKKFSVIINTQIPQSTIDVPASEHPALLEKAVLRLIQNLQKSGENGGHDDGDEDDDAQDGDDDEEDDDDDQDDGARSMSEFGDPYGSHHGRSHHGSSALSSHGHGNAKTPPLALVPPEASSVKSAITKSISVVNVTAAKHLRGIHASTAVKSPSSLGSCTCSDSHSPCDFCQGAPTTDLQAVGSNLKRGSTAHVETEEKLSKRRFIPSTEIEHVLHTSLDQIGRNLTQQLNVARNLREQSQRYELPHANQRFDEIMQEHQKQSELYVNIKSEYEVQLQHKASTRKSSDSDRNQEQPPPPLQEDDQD
As to the kind of experiment: competition against R,S-[3H]JH III, glass fiber filter. The assay is classed as binding.

Assay [2] has as its target T2, endogenous Gce in Drosophila S2 cells (JHRE-luc) (Drosophila melanogaster, UniProt Q9VXW7).
T2 construct: endogenous Gce of S2 cells, transfected D. melanogaster Tai and JHRE-luc reporter
As to the kind of experiment: JHRE-luc reporter activation in S2 cells. The assay is classed as cell-based. As to conditions: 8 h, transfected Tai, agonist.

Setting [3] is: read-out: Affinity of ligand binding to Gce (Ki)^a.

Read-outs that look alike come from different tables or passages of the source.

T2 sequence (Q9VLD9 1-2026 partner, one chain of several): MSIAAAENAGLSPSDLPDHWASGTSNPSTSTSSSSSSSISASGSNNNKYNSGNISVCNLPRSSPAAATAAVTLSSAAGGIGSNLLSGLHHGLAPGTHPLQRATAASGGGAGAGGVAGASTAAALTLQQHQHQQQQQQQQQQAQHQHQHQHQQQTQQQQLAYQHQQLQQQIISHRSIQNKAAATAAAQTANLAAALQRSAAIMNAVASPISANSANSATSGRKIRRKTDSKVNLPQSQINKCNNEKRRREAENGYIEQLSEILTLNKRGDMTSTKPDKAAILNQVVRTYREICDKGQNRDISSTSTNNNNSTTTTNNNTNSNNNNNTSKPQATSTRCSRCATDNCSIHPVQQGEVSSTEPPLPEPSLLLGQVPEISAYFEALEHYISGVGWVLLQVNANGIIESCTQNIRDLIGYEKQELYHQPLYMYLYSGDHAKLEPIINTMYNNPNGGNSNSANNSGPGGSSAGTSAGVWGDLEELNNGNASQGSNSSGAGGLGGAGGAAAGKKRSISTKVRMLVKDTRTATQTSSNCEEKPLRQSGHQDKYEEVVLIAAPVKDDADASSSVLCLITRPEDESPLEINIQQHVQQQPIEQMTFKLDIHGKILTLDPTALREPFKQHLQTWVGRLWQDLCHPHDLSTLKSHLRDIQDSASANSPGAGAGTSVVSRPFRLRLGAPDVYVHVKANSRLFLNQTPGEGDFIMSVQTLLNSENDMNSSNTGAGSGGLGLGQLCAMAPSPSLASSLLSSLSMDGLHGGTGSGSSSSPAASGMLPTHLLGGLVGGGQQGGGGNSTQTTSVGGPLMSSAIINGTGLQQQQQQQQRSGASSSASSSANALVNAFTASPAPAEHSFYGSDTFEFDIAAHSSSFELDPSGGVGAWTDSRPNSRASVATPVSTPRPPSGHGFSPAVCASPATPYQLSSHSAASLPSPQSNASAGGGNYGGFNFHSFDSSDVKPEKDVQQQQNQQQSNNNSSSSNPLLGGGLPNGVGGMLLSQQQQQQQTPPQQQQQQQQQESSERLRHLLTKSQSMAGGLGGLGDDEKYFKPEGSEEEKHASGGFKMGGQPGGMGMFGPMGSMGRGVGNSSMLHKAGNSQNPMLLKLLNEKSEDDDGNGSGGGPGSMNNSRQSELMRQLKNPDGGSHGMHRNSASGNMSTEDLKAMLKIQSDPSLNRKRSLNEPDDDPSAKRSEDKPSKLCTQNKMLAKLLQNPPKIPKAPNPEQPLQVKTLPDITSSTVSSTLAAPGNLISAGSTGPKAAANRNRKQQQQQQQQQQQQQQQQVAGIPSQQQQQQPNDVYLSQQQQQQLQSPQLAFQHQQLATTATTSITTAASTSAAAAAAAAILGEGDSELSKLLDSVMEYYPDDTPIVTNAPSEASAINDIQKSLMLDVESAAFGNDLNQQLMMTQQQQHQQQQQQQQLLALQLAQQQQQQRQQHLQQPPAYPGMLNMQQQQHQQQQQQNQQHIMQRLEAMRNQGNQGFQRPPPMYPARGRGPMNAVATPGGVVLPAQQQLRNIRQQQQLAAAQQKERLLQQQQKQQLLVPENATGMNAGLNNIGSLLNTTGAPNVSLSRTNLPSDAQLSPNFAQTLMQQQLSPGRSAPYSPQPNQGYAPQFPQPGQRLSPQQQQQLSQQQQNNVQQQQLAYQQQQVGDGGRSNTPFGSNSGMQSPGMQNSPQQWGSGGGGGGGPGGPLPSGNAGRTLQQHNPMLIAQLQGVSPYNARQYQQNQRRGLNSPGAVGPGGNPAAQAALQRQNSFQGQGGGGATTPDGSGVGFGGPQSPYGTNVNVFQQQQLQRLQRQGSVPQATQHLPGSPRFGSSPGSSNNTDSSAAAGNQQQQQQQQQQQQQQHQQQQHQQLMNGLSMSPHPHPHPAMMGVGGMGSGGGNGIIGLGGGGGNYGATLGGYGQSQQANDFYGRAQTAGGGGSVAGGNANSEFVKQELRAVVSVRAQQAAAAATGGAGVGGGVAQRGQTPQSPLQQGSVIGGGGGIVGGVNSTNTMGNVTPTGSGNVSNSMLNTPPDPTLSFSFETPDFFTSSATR

Turning to `COC(=O)/C=C(\C)CCC1OC1(C)CCC1OC1(C)C` (centres unmarked) [JHB3], in assay [1] (read-out: Ki), the Ki is 83.3 ± 40.8 nM. Further, in assay [2] (read-out: EC50), the EC50 is 110 ± 10 nM.

Take `COC(=O)/C=C(\C)CC/C=C(\C)CCC=C(C)C` [MF]: the Ki in assay [1] (read-out: Ki) was 89.8 ± 26.7 nM. Further, the EC50 in assay [2] (read-out: EC50) stood at 4430 ± 950 nM.

As to `COC(=O)/C=C(\C)CC/C=C(\C)CCC1OC1(C)C` (centres unmarked) [R,S-JH III], the Ki in assay [1] (read-out: Ki) was 11 ± 2.2 nM. Moreover, in assay [2] (racemic compound, read-out: EC50), the EC50 was 210 ± 140 nM.

For `CC/C(=C/CC/C(C)=C/C(=O)OC)CC[C@H]1O[C@]1(C)CC` [R-(E,Z)-JH I], the Ki in assay [1] (setting [3]) came out at 479 nM.

Take `CC/C(=C\CC/C(C)=C\C(=O)OC)CC[C@H]1O[C@]1(C)CC` [R-(Z,E)-JH I]: in assay [1] (setting [3]), the inhibition constant (Ki) is 2400 nM.

In the case of `CC/C(=C/CC/C(C)=C\C(=O)OC)CC[C@H]1O[C@]1(C)CC` [R-(Z,Z)-JH I], in assay [1] (setting [3]), the Ki came out at 28900 nM.

With `COC(=O)/C=C(\C)CC/C=C(\C)CC[C@H]1OC1(C)C` [R-JH III], in assay [1] (read-out: Ki), the inhibition constant (Ki) amounted to 4.8 ± 1.3 nM. In addition, in assay [2] (read-out: EC50), the EC50 is 930 ± 380 nM.

Turning to `CC/C(=C\CC/C(C)=C/C(=O)OC)CC[C@H]1O[C@@]1(C)CC` [S-(E,E)-JH I], the Ki in assay [1] (read-out: Ki) amounted to 13.8 ± 5.1 nM. Further, the EC50 in assay [2] (read-out: EC50) turned out to be 370 ± 220 nM.

For the compound `CC/C(=C/CC/C(C)=C/C(=O)OC)CC[C@H]1O[C@@]1(C)CC` [S-(E,Z)-JH I], the Ki in assay [1] (setting [3]) was determined as 447 nM.

As to `CC/C(=C\CC/C(C)=C\C(=O)OC)CC[C@H]1O[C@@]1(C)CC` [S-(Z,E)-JH I], the Ki in assay [1] (setting [3]) stood at 614 nM.

As to `CC/C(=C/CC/C(C)=C\C(=O)OC)CC[C@H]1O[C@@]1(C)CC` [S-(Z,Z)-JH I], the Ki in assay [1] (setting [3]) was found to be 22600 nM.

Regarding `COC(=O)/C=C(\C)CC/C=C(\C)CC[C@@H]1OC1(C)C` [S-JH III], the Ki in assay [1] (read-out: Ki) is 38.3 ± 5.2 nM. For the same compound, in assay [2] (unreliable (no saturation reached)), the EC50 was 4460 ± 2950 nM.

`CCOC(=O)NCCOc1ccc(CC2CCCCC2O)cc1` (centres unmarked) [W330, Ethyl N-{2-{4-[(2-hydroxycyclohexyl)methyl]phenoxy}ethyl}carbamate]: the Ki in assay [1] (read-out: Ki) amounted to 17.4 ± 5.7 nM. Further, in assay [2] (read-out: EC50), the EC50 was found to be 5.42 ± 0.41 nM.

Regarding `CC/C(C)=C/CC/C(=C/CC/C(C)=C/C(=O)OC)CC` [deoxy-JH I, methyl (2E,6E,10E)-7-ethyl-3,11-dimethyltrideca-2,6,10-trienoate], the Ki in assay [1] (read-out: Ki) was found to be 143 ± 45 nM.

As for `CCOC(=O)NCCOc1ccc(Oc2ccccc2)cc1` [fenoxycarb, ethyl N-[2-(4-phenoxyphenoxy)ethyl]carbamate], in assay [1] (read-out: Ki), the Ki is 2.8 ± 1.1 nM. Further, in assay [2] (read-out: EC50), the EC50 was found to be 2.29 ± 0.65 nM.

The values above are taken from paper PMC6333893, “Exquisite ligand stereoselectivity of a Drosophila juvenile hormone receptor contrasts with its broad agonist repertoire” (The Journal of Biological Chemistry, 2018).
